# Measurements published in US12004506B2, “Pharmaceutical composition comprising a cyclic peptide of formula X1-[sequence]-X2 and use for extracorporeal lung treatment” (priority 2013, dated 2024).
# What was measured:
# [1] = system: sodium ion current in A549 cells (deglycosylated cell surface); experiment: Patch clamp assay, whole cell mode, on A549 cells deglycosylated with PNGase F; assay type: cell-based, human; details: 240 nM peptide, Eh -100 mV, A549
# Procedure: In whole cell mode experiments as described above, A549 cells were incubated with “PNGase enzyme F” (Peptide-N^4-(N-acetyl-β-D-glucosaminyl)asparagine amidase F) 100 units for 1-5 minutes immediately prior to the patch clamp measurements and glass cover slips with the cultured cells were rinsed with external solution before being transferred to the chamber of the 1 mL bath.
# The results of the deglycosylation experiments using the patch clamp assay in whole cell mode are presented in Table IV, wherein the effect of deglycosylation of A549 cells on activation of sodium ion current by peptides of SEQ ID NO:1 to SEQ ID NO:7 is indicated. Whole cell currents were recorded at Eh=−100 mV.
# [2] = Stability of aqueous solution of the cyclised compound; assay type: physicochemical
# Description: For administration by inhalation/spraying, e.g. in the form of an aerosol, either the aqueous solution from the first dissolution step, or the lyophilisates obtained, re-dissolved in water, is subjected to spraying (atomizing) to obtain an aerosol, e.g. by use of a nebulizer. […] The appropriate lower limit of the droplet size is dependent only from the feasibility of the droplets.
# [3] = Particle size of aerosol droplets after nebulizing the aqueous solution; assay type: physicochemical
# Procedure: With the aid of nebulizers the aqueous solution of a cyclised compound of formula I, namely that of the amino acid sequence SEQ ID NO: 1 was transferred into an aerosol. The particle size of the droplets was measured after subjecting the aqueous solution to 3 different nebulizers and is set out in Table II below: […]
# transplanted pig lung = experiment: Re-implantation of pre-treated non-ischemic donor lungs in recipient pigs; assay type: in vivo; details: nebulisation 1 mg/kg, 24 h evaluation
# Procedure: After the pre-treatment of the non-ischemic donor lungs with peptide SEQ ID NO:1 from Example 4 the lungs were re-implanted in recipient pigs. Shortly after reperfusion of the transplanted lungs peptide SEQ ID NO: 1 was administered.
# A left thoracotomy through the sixth inter costal space was done, the left hilus was prepared. The hemiazygos vein on the left side was dissected and transected, as it is hiding both the left pulmonary artery and the left atrium. After dissection the ligated ends can be pulled to facilitate exposure of the OP field. The […] and bronchus are encircled. Left pneumonectomy was performed using vascular clamps. Immediately before the implantation single intravenous dose of methylprednisolone (500-1000 mg) and a low dose of heparin (100 IU/kg, see above) was applied. The donor lung was then reimplanted using 4-0 PDS for the bronchial anastomosis and 5-0 Prolene for the pulmonary artery and the left atrial anastomosis. In pigs, there is an additional lobe (caval lobe) of the right lung with 2 veins into the left atrium (1 separate vein for the caval lobe, 1 additional vein arising from the trunk of the main right lower lobe vein). […]
# The left donor lung was evaluated for an additional period of 24 hours.
# The following parameters have been assessed:
# Functional assessment of graft function by oxygenation parameters: Arterial blood gas analyses as well as selective blood gas analysis from the left pulmonary veins were performed every 2 hours for 24 h. The respiratory index was calculated: RI=PaO2/FiO2.
# Lung compliance was calculated from the pressure and volume data of the anesthesia ventilator. […]
# Functional assessment of graft function by hemodynamic measurements (on-line measurements) and pulmonary vascular resistance (PVR): Hemodynamics, including pulmonary artery pressure (PAP) was measured continuously. Cardiac output (CO) was measured by using a Swan-Ganz catheter. Pulmonary vascular resistance is calculated by the following formula: PVR (dynes·[…]·cm−5)=(PAP−LAP)×80/CO.
# [4] = system: sodium ion current in A549 cells (deglycosylated cell surface); experiment: Patch clamp assay, whole cell mode, on A549 cells deglycosylated with PNGase F; assay type: cell-based, human; details: 240 nM peptide, Eh -100 mV
# [5] = laboratory syringe, 2 to 8° C., T = 0 and T = 7 days
# [6] = storage tank of a nebulizer, 25° C., T = 0 and T = 24 hours
smiles,measurement,setting,value
C[C@@H]1NC(=O)CNC(=O)[C@H](CCC(=O)O)NC(=O)[C@@H]2CCCN2C(=O)[C@H]([C@@H](C)O)NC(=O)[C@H](CCC(=O)O)NC(=O)[C@H](CCCNC(=N)N)NC(=O)[C@H](CCC(N)=O)NC(=O)CNC(=O)[C@@H](N)CSSC[C@@H](C(=O)O)NC(=O)[C@H](Cc2ccc(O)cc2)NC(=O)[C@H](Cc2c[nH]c3ccccc23)NC(=O)[C@@H]2CCCN2C(=O)[C@H](CCCCN)NC(=O)[C@H](C)NC(=O)[C@H](CCC(=O)O)NC1=O [SEQ ID NO: 1],"Whole cell current, pre-treatment with PNGase F",[1],19.6 pA (n = 3)
same,Purity (stability),"[2]; laboratory syringe, 2 to 8° C., T = 0",96.3%
same,Amount/Content,[2]; [5],25 mg/mL
same,Appearance of aqueous solution,[2]; [5],Clear solution
same,Purity (stability),"[2]; laboratory syringe, 2 to 8° C., T = 7 days",96.2%
same,Purity (stability),"[2]; storage tank of a nebulizer, 25° C., T = 0",96.6%
same,Amount/Content,[2]; [6],25 mg/mL
same,Appearance of aqueous solution,[2]; [6],Clear solution
same,Purity (stability),"[2]; storage tank of a nebulizer, 25° C., T = 24 hours",96.5%
same,Amount of particles with Ø ≤ 5 μm,[3]; nebulizer Type A,50%
same,Median particle diameter,[3]; nebulizer Type A,4.7 μm
same,Amount of particles with Ø ≤ 5 μm,[3]; nebulizer Type B,70%
same,Median particle diameter,[3]; nebulizer Type B,3.3 μm
same,Amount of particles with Ø ≤ 5 μm,[3]; nebulizer Type C,65%
same,Median particle diameter,[3]; nebulizer Type C,3.7 μm
same,development of lung oedema,transplanted pig lung,reduced
same,initial graft function and gas exchange,transplanted pig lung,improved
same,rate of ischemia reperfusion injury induced malfunction of the transplanted lung,transplanted pig lung,reduced
same,"Whole cell current, no pre-treatment with PNGase F",[4],1073.3 ± 15.1 pA
